Assay: in vitro
Conditions: human, hela cells, % viability

Compound | viability at 28.5 h, 10 µM [%]
Cc1nc(NS(=O)(=O)c2c(C)noc2C)sc1C(=O)Nc1ccc(F)cc1 [CBK050551] | 113
CC1(C)CC(=O)C(=CNCC(N)=O)C(=O)C1 [CBK262520] | 87.2
Cn1cnc(C(=O)N2CC[C@H]3NC(=O)c4ccccc4OCCCCC[C@H]3C2)c1 [CBK292031] | 88.9
CN1CCCC(C(O)c2ccccc2)C1 (stereo not drawn) [CBK012472] | 96.9
Cn1cc(CCNC(=O)NC2CCN(c3ncccn3)CC2)cn1 [CBK305612] | 104
O=C(CCc1ccccc1)NNC(=O)C1C2C=CC(C2)C1C(=O)O (stereo not drawn) [CBK267541] | 94.2
NC(=O)CC[C@H](N)C(=O)N1CC[C@@H]2NC(=O)[C@H](Cc3ccccc3)NC(=O)C3(C/C=C/C[C@@H]2C1)CCOCC3 [CBK292199] | 109
CCOC(=O)C1(C2CCCCC2)CCN(C(=O)Cc2ccc(Cl)c(Cl)c2)CC1 [CBK136922] | 95.2
CCOC(=O)Cc1csc(NS(=O)(=O)c2ccc(Br)cc2C)n1 [CBK200027] | 96.2
CC(=O)c1cc(C(=O)N2CCC(O)(c3cccc(C)c3)CC2)cs1 [CBK282531] | 92.8
Oc1cc(Cc2ccccc2)cnc1CN1CCOCC1 [CBK288173] | 94
O=C(O)CC(NCc1ccccc1)C(=O)Nc1ccc(Cl)cc1 (stereo not drawn) [CBK267141] | 95.4
CCc1nnc(NCC2CCCCC2)s1 [CBK075044] | 88.1
CCN(CC)C(=O)CCc1nc2sc3c(c2c(=O)[nH]1)CCCC3 [CBK305069] | 87.6
CCc1nn(CC(=O)NCC2CC2)c(=O)c2cc3ccsc3n12 [CBK284129] | 87.8
CC(C)(C)OC(=O)N1CCN(c2nccnc2OCCO)CC1 [CBK001869] | 119
Cc1csc2c(C3CCN(C(=O)c4ccncc4)CC3)nc(C)n12 [CBK285243] | 84.4
Cc1nc(SCCn2cccn2)c2c(=O)n(C)c(=O)n(CC(C)C)c2n1 [CBK306321] | 99.1
COc1ccc(Nc2nccc3c2nnn3C)cc1 [CBK287879] | 80.9
CN1CCN(c2ccc([N+](=O)[O-])c(NCc3ccccc3)c2)CC1 [CBK042199] | 93.7
N#Cc1ccc(-n2ncc(-c3cccc(C(F)(F)F)c3)n2)cc1 [CBK112675] | 90.9
O=C1CC(c2ccccc2)c2c(c3ccccc3[nH]c2=O)O1 (stereo not drawn) [CBK288237] | 112

Compound | viability at 28.5 h, 10 µM [%]
COc1ccc(Cl)cc1NC(=O)C1CCCN1S(=O)(=O)c1ccc(F)cc1 (stereo not drawn) [CBK069866] | 108
N#Cc1cc(F)cc(F)c1NC(=O)c1cccs1 [CBK066832] | 90.2
O=CNC(Cc1ccc(O)c([N+](=O)[O-])c1)C(=O)O (stereo not drawn) [CBK262421] | 101
N#Cc1ccccc1/C=N/NC(=O)COc1ccc(-c2cc(-c3ccccc3)c3cc(Cl)ccc3n2)cc1 [CBK263337] | 89.1
CC1CCc2sc(C(=O)N3CCC4(CC3)NC(=O)NC4=O)cc2C1 (stereo not drawn) [CBK304992] | 89.1
CCOC(=O)[C@H]1CN(C(=O)C(C)(C)NC(=O)OC(C)(C)C)C[C@@H]1c1cc2cc(C)ccc2o1 [CBK001599] | 91.1
Cc1cc(C)cc(C(=O)N2CCC(NC(=O)c3cnn(C)c3)CC2)c1 [CBK305723] | 92.3
Cc1ccc(Oc2ccc(CNC(=O)c3sc4nc[nH]c(=O)c4c3C)cc2)cc1 [CBK285857] | 91.3
Cn1cccc1C(=O)N[C@H]1CCN2C(=O)N(c3ccc(OC(F)(F)F)cc3)C(=O)[C@@H]2C1 [CBK289548] | 94.7
O=C(O)c1ccccc1NS(=O)(=O)c1cccc(-n2sc3ccccc3c2=O)c1 [CBK116503] | 94.7
CCN(CC)CCNC(=O)c1c(C)oc2cc(Br)c(OC)cc12 [CBK018064] | 87.3
Cn1cccc1C(=O)N[C@H]1C[C@H]2C(=O)Nc3ccc(/C=C/c4ccccc4)cc3C(=O)N2C1 [CBK289367] | 86.7
CC(=O)c1c2c(c(N3CCN(C#N)CC3)[nH]c1=S)CC(C)(C)OC2 [CBK018622] | 86.3
CC(C)[C@H]1NC(=O)[C@@H]2[C@@H](NC(=O)NC3CCCCC3)CCN2C1=O [CBK289264] | 113
Cc1ccc2c(N)c(C(=O)c3ccc4c(c3)OCCO4)sc2n1 [CBK270265] | 84.2
CCOc1cc(/C=C(/C#N)c2nc3ccccc3[nH]2)ccc1OCc1ccc(C(=O)O)o1 [CBK267923] | 88.9
COc1ccc(-c2cnc3[nH]c(=O)n(Cc4cccs4)c3n2)c(OC)c1OC [CBK064716] | 97.2
Cc1ccccc1OCc1nn2c(COc3ccccc3)nnc2s1 [CBK267230] | 85.4
NS(=O)(=O)c1ccccc1NC(=O)NC1CCCCC1 [CBK016919] | 93.4
COc1ccccc1CC(=O)N1CCn2cc(C(F)(F)F)nc2C1 [CBK283806] | 84.5
O=C1c2ccc(-c3nc4ccc(Cl)cc4c(=O)o3)cc2C(=O)N1Cc1cccnc1 [CBK268460] | 104
O=C(OCc1cc2ccccc2o1)N1CCOCC1 [CBK200162] | 98.1

Compound | viability at 28.5 h, 10 µM [%]
O=C([C@H]1O[C@H](CCN2CCN(c3ccccc3)CC2)CC[C@@H]1O)N1CCOCC1 [CBK288724] | 98.5
O=C(NC[C@H]1O[C@@H](CC(=O)N2CCN(c3ccc(F)cc3)CC2)[C@H](O)[C@@H]1O)c1ccco1 [CBK288922] | 95.4
O=C(CSc1ccc2nnc(-c3cccc(F)c3)n2n1)Nc1nccs1 [CBK287522] | 85.8
COc1ccc(C)cc1C1(CNC(=O)C2CCC(N)C2)CCOCC1 (stereo not drawn) [CBK304312C] | 107
COc1ccc(CNCCN2CCOCC2)c(OC)c1 [CBK278180C] | 90.1
N#C/C(=C\c1ccc2noc(-c3ccccc3)c2c1)c1nc(-c2cc3ccccc3oc2=O)cs1 [CBK267269] | 90.2
CN1CCN(Cc2nc3c(c(=O)n(C)c(=O)n3C)n2Cc2ccc(Br)cc2)CC1 [CBK269310] | 87.9
CN(Cc1ccncc1)C(=O)CCn1c(C(F)F)cc2cccnc21 [CBK285070] | 81
C=CCC1(CC=C)CCN1C(=O)c1cccc(N2CCCC2=O)c1 [CBK282709] | 85
CCCNC(=O)CSc1ncccc1C(=O)O [CBK287202] | 78.6
CSc1ccc(-c2cn3ccnc3c(N3CCN(CCO)CC3)n2)cc1 [CBK066596] | 86.6
NC(=O)c1ccc(-n2ncc(-c3ccsc3)n2)cc1 [CBK112858] | 98.4
CC(C)Nc1nccnc1Sc1cccc(O)c1 [CBK093725] | 111
CC1CCc2nc(NC(=O)Cn3cc(C(=O)Nc4ccc(F)cc4)ccc3=O)sc2C1 (stereo not drawn) [CBK286053] | 100
CCN1C(=O)COC[C@@H]1[C@H](O)c1ccc(NC(=O)C2CCC2)cc1 [CBK289686] | 85.7
COCCN1C(=O)c2ccc(C(=O)Nc3ccc(O)c(C(=O)O)c3)cc2C1=O [CBK268344] | 102
O=C(NCCO)c1cccc(-c2cncc(N3CCCCC3CCO)n2)c1 (stereo not drawn) [CBK037759] | 104
O=C(CSc1n[nH]c(=O)n1C1CC1)NCCCSc1ccccc1 [CBK295620] | 104
Cc1nc(CN2CCCC3(CCN(C(=O)c4cc(F)c(F)cc4F)C3)C2)cs1 (stereo not drawn) [CBK132026] | 119
CCC1(O)C(C)C(c2ccc(Cl)cc2)NC(c2ccc(Cl)cc2)C1C (stereo not drawn) [CBK025376C] | 124
CN1C[C@@H](C(=O)NC(C)(C)C)[C@@]2(CCc3ccccc3C(=O)N2)C1 [CBK284796] | 99
CCc1ccc(CNC(=O)Cn2nnc(-c3ccc(C(C)N4CCC(C)CC4)cc3)n2)cc1 (stereo not drawn) [CBK164199T] | 97.5

Compound | viability at 28.5 h, 10 µM [%]
COc1cccc(C2C(C(=O)c3ccc(C)o3)=C(O)C(=O)N2CCN2CCOCC2)c1 (stereo not drawn) [CBK264899] | 92.8
CCn1c2ccccc2n2c(SCCC(=O)O)nnc12 [CBK267135] | 102
CC1CCN(S(=O)(=O)c2cccc(C(=O)NNC(=O)c3cccc([N+](=O)[O-])c3)c2)CC1 [CBK266774] | 98
Cc1ccc(C(C)(C)C(=O)N2CC(C(=O)N3CCN(C)CC3)C2)cc1 [CBK281371] | 99.4
N#C/N=C(/Nc1cccnc1)Oc1ccccc1 [CBK012612] | 87.3
Cc1cc(C(=O)N2CCC(F)CC2)n[nH]1 [CBK200277] | 109
Cn1c(=O)c2[nH]c(NCCN3CCOCC3)nc2n(C)c1=O [CBK266189] | 98.6
CCCNC(=O)c1cc(C2CCCN(Cc3ccccc3)C2)no1 (stereo not drawn) [CBK283388] | 98
COc1cc(NC(=O)N(C)C2CCN(C)C2)cc(OC)c1OC (stereo not drawn) [CBK156022] | 101
Cc1ccc(OC2(C(=O)N3CCCC3c3nccs3)CCNCC2)cc1 (stereo not drawn) [CBK307539] | 94.6
Cc1cnc2c(Cl)c(C(=O)NCC3(CN4CCOCC4)CC3)nn2c1 [CBK306918] | 98.8
O=[N+]([O-])c1ccc(N2CCN(S(=O)(=O)c3ccc4ccccc4c3)CC2)cc1NCc1ccco1 [CBK264417] | 108
CCNC(=O)Nc1cc2cccnc2nc1-c1ccc2c(c1)OCCCO2 [CBK070695] | 97.1
O=C(O)c1cc(NC(=O)c2ccco2)cc(C(=O)O)c1 [CBK263360] | 102
CC(C)(CC(=O)O)CC(=O)Nc1cc(S(=O)(=O)N2CCCC2)ccc1Cl [CBK296702] | 95.4
CCCn1ccnc1SCC(=O)Nc1ccc(N(C)C)cc1 [CBK304996] | 112
O=C(O)c1ccccc1Nc1c2ccccc2nc2ccccc12 [CBK263921] | 96
O=C(Nc1cccc(Cl)c1Cl)c1cccs1 [CBK057672] | 104
CC1CCc2c(sc(NC(=O)c3cc(-c4ccccn4)nc4c(Cl)cccc34)c2C(N)=O)C1 (stereo not drawn) [CBK267744] | 94.1
CS(=O)(=O)N1CCCc2cc(-c3csc(-c4cnccn4)n3)ccc21 [CBK305239] | 95.4

Same assay, conditions: human, hela cells, % viability, bulk resorufin, single well

Compound | viability at 28.5 h, 10 µM [%]
CCC(=O)N(C[C@H]1CCC[C@@H]1N(C)C)c1ccc(Cl)c(Cl)c1 [CBK003408] | 96.5

Reference: PMC12040169 (PLOS Biology, 2025)
